Experimental data reported in patent US6413983B1, “Benzopyranyl heterocycle derivatives, process for preparation thereof, and pharmaceutical compositions containing them” (Dongbu Hannong Chemical Co. Ltd., priority 2000, dated 2002).
Read-outs that look alike come from different tables or passages of the source.

Key:
[1] = tested on: isolated rat aorta constricted with methoxamine; assay: Vasodilation effects on isolated aorta of rats (methoxamine-constricted rings); conditions: isolated rat aorta constricted with methoxamine (3 μM); 50% relaxation
Description: Male Sprague-Dawly rats (350-450 g, obtained from the Experimental Animal Team of the Korea Research Institute of Chemical Technology) were knocked unconscious by hitting the occipital region, sacrificed by cervical dislocation, and underwent thoracotomy. After being quickly removed, the thoracic aorta was deprived of the adipose tissue and cut into aortic rings of 3 mm width. The aorta was lightly rubbed with cotton club soaked in a modified Krebs Henseleit buffer (Physiological Salt Solution, PSS) to remove the inner epithelial layer therefrom.
Thereafter, 3×10^−6 M methoxamine was applied to induce an intensive constriction in the vascular smooth muscle. When the vasoconstriction induced by the methoxamine was reached and maintained to a maximum, test compounds and controls were cumulatively added to the organ baths in concentrations of 1, 3, 10 and 30 μM so as to examine the vasodilation effect.
The change rate of constriction by the addition of the drugs compared to the maximal constriction induced by methoxamine was calculated to plot a concentration-relaxation response curve.

[2] = tested on: cerebral cortical neurons; assay: Protective activity for neuronal cells against iron-induced damage (LDH release); type: cell-based, rat; conditions: 30 μM compound, 50 uM FeSO4, 24 hours, LDH reduction rate vs control
Description: From the brains of 17-18 day-old rat embryos, cerebral cortical neurons were isolated and then, cultured at 37° C. for 7-9 days in a 5% CO2 incubator. The cortical cell cultures were washed twice with a minimum essential medium (MEM) to reduce the serum concentration to 0.2% and pre-treated for 30 min with 30 μM of each of test compounds. For the experiments, the test compounds were dissolved in DMSO and diluted in a medium. At this time, the final concentration of DMSO was not allowed to exceed 0.2%. For a control group, only vehicle was applied.
After the pre-treatment with test compounds or vehicle, FeSO4 was added to a final concentration of 50 uM, and the cultures were maintained for 24 hours in a CO2 incubator. During incubation, lactate dehydrogenase (LDH) was released into the medium upon neuronal death by the oxidative toxicity of iron. The extent of neuronal damage was assessed by measuring the amount of LDH released into the media. The protective effect of the compounds of interest on neurons was evaluated by calculating the LDH reduction rate of treatment group compared with that of the control group.

isolated rat hearts = assay: Cardioprotective activity in isolated ischemic heart models of rats (Langendorff, global ischemia/reperfusion); conditions: for EDP (MmHg): left ventricular end-diastolic pressure after 30 min reperfusion; for LDVP × HR (%): reperfusion double product as % of pretreatment DP, 30 min global ischemia, 30 min reperfusion; for TTC: time to contracture during global ischemia
Description: Male Sprague-Dawley rats weighing 300-450 g were anesthetized with sodium pentobarbital (100 mg/kg, i.p.). The tail vein was injected with heparin (1,000 U/kg) and then the trachea was intubated. […] A latex balloon filled with solvent (ethanol: water=1:1 (v/v)) and attached to a metal cannula was placed in the left ventricle through pulmonary vein and connected to a Isotec pressure transducer (H.S.E., Germany) for measurement of left ventricular pressure (LVP). […] Then, baseline contractile function, heart rate (HR), and coronary flow (CF) (extracorporeal electromagnetic flow probe, Narco Bio-System, U.S.A.) were measured. Cardiac contractile function was calculated by subtracting LVEDP from LV peak systolic pressure (LVSP), yielding developed pressure (LVDP). Double product (DP), another important parameter for assessing cardiac performance, was calculated by multiplying HR by LVDP. Throughout the experiment, all these parameters were measured, and calculated before and 10 min after pretreatment with each compound and 30 min after the onset of reperfusion with buffer. Data on reperfusion DP were further expressed as the percentage to pretreatment DP.
We then rendered the hearts globally ischemic by completely shutting off the perfusate for 30 min. Severity of ischemia was determined as the time to contracture (TTC, min) during global ischemia in which the first 5 mmHg increase in EDP was observed. Then, the hearts were reperfused and, 30 min later, contractile function (LVDP, DP) and cumulative reperfusion lactate dehydrogenase (LDH) release were measured. LDH was measured as a sensitive index for loss of cell viability with a kit supplied by Boerhinger Mannheim based on the technique of Wroblewski and LaDue [F. Wroblewski and JS.

[3] = tested on: ischemic myocardium damage model of anesthetized rats; assay: Cardioprotective activity in ischemic heart models of rats (LAD occlusion/reperfusion, anesthetized rats); type: in vivo, rat; conditions: rat, in vivo, iv, 0.3 mg/kg
Description: After trachetomy, the rats were rendered to respire artificially at a rate of 60/min with a stroke volume of 10 ml/kg. Cannulars were inserted into the fermoral vein and the fermoral artery and used for drug administration and blood pressure measurement, respectively.
In the ischemic myocardial injury models, the body temperature has an important influence on the results. To avoid the change in the body temperature, a body temperature measuring probe was inserted into the rectum of each rat and the body temperature was constantly kept at 37° C. with the aid of a homeothermic blanket control unit.
Afterwards, during testing, a continuous measurement was made of the mean arterial blood pressures and heart rates from the rats. For the measurement of the blood pressure, a pressure transducer, such as that manufactured by Grass Ins., MA, U.S.A., identified as Model Statham P23XL, was used.
The heart rate was measured by a tachometer, such as that manufactured by Gould Inc., Ohio, U.S.A., identified as Biotachometer. In addition, all of the changes occurring were continuously recorded through the Gould 2000 chart recorder, manufactured by Gould Inc.
The left coronary artery was occluded according to the Selye H. method as follows. The rats underwent a left thoracotomy operation for partial opening of the chest and the right-side chest was pressurized by the middle finger of the left hand to push the heart out. Immediately after the left anterior descending coronary artery hereinafter referred to as (LAD) was carefully stitched using a suture needle with 5-0 silk ligature, the heart was then repositioned in the thoracic cavity while both ends of the ligature were situated outside. The opposite ligature ends were passed through a PE tube (PE100, 2.5 cm) and allowed to stand loose for 20 min for stabilization. Via the cannula inserted into the femoral vein, vehicles or drugs were administered into the rats which were rendered to stand for 30 min in order to sufficiently elicit the efficacies of the drugs.
Next, the PE tube which had the doubled strands of the ligature passed therethrough was pushed toward the heart and then, set upright by tightly pulling end regions of the ligature with a hemostatic pincette while pressing the coronary artery.
After the reocclusion of the coronary artery in accordance with the above procedure, the rats were administered with 2 ml of a 1% Evans blue through an intravenous route. Subsequently, an excess of pentobarbital was intravenously injected to kill the rats, after which the heat was removed and then, deprived of the right ventricle and both atria. The left ventricle was cut horizontally to the heart apex into 5 or 6 slices which were weighed. From the surface of each slice, images were input with the aid of a Hi-scope into a computer installed with an image analyzing program (Image Pro Plus). From the images input into the computer, the area of the normal blood stream tissue region which appeared blue in a computer monitor and the area which appeared colorless were measured. The percentage of the colorless area to the total area of each slice was calculated and multiplied by the weight of each slice to determine the area at risk (AAR) of each slice. The AAR obtained from each slice was summed for all slices and the total AAR was divided by the total weight of the left ventricle to yield % AAR, as shown in the following mathematical formula 1:
AAR(%)=(summed AAR for all slices)/(total weight of left ventricle)×100 [Mathematical Formula 1]
During this fixation, 2,3,5-triphenyltetrazolium chloride was reduced into formazan dye by the myocardial dehydrogenase and its cofactor NADH, so that the normal regions of the tissue were colored brick-red. In contrast, the infarct zones of the tissue were deficient in the dehydrogenase and its cofactor, so that no reduction occurred on the 2,3,5-triphenyltetrazolium, allowing the color to remain unchanged.

[4] = 10 μM, cumulative reperfusion LDH release

Compound	IC50 [1] [µM]	% Protection [2] [%]	LDH (U/g) (isolated rat hearts; [4])	EDP (MmHg) (isolated rat hearts; 10 μM)	LDVP × HR (%) (isolated rat hearts; 10 μM)	TTC (isolated rat hearts; 10 μM) [min]	also measured
CC1(C)Oc2ccc(C#N)cc2C(N2CCCC2=O)C1O (stereo not shown) [CromaKalim, Cromakalim, reference compound]	0.067	–	–	–	–	–	–
CCOC(=O)[C@@H]1Cc2ccccc2N1[C@@H]1c2cc([N+](=O)[O-])ccc2O[C@](C)(C(OC)OC)[C@H]1O [Example 4, 1-[(2S, 3S, 4R)-3,4-dihydro-2-dimethoxymethyl-3-hydroxy-2-methyl-6-nitro-2H-1-benzopyran-4-yl]-(2S)-2,3-dihydro-1H-indole-2-carboxylic acid ethyl ester]	–	–	–	–	–	–	% Protection ([2]; listed as EX. 4): 98%
COC(=O)[C@H]1Cc2ccccc2N1[C@H]1c2cc([N+](=O)[O-])ccc2O[C@](C)(C(OC)OC)[C@@H]1O [Example 5, 1-[(2S, 3R, 4S)-3,4-dihydro-2-dimethoxymethyl-3-hydroxy-2-methyl-6-nitro-2H-1-benzopyran-4-yl]-1H-(2R)-2,3-dihydroindole-2-carboxylic acid methyl ester]	–	79	–	–	–	–	–
COC(=O)[C@@H]1Cc2ccccc2N1[C@H]1c2cc([N+](=O)[O-])ccc2O[C@](C)(C(OC)OC)[C@@H]1O [Example 6, 1-[(2S, 3R, 4S)-3,4-dihydro-2-dimethoxymethyl-3-hydroxy-2-methyl-6-nitro-2H-1-benzopyran-4-yl]-1H-(2S)-2,3-dihydroindole-2-carboxylic acid methyl ester]	15.6	–	10.4	21	62.2	24.5	–
CCOC(=O)[C@H]1Cc2cc(OC)ccc2N1[C@H]1c2cc([N+](=O)[O-])ccc2O[C@](C)(C(OC)OC)[C@@H]1O [Example 11, 1-[(2S, 3R, 4S)-3,4-dihydro-2-dimethoxymethyl-3-hydroxy-2-methyl-6-nitro-2H-1-benzopyran-4-yl]-(2R)-2,3-dihydro-1H-5-methoxyindole-2-carboxylic acid ethyl ester]	16.5	–	–	14.7	66.5	22.9	AAR/LV (%) [3]: 38.3%; IZ/AAR (%) [3]: 42.1%; LDH (U/g) (isolated rat hearts): 13.3 U/g
CCOC(=O)[C@@H]1Cc2cc(OC)ccc2N1[C@H]1c2cc([N+](=O)[O-])ccc2O[C@](C)(C(OC)OC)[C@@H]1O [Example 12, 1-[(2S, 3R, 4S)-3,4-dihydro-2-dimethoxymethyl-3-hydroxy-2-methyl-6-nitro-2H-1-benzopyran-4-yl]-(2S)-2,3-dihydro-1H-5-methoxyindole-2-carboxylic acid ethyl ester]	–	85	–	–	–	–	–
CCOC(=O)[C@H]1Cc2cc(F)ccc2N1[C@H]1c2cc([N+](=O)[O-])ccc2O[C@](C)(C(OC)OC)[C@@H]1O [Example 15, 1-[(2S, 3R,4S)-3,4-dihydro-2-dimethoxymethyl-3-hydroxy-2-methyl-6-nitro-2H-1-benzopyran-4-yl]-(2R)-2,3-dihydro-1H-5-fluoroindole-2-carboxylic acid ethyl ester]	> 30	–	12.0	2.7	53.3	24.8	–
CCOC(=O)[C@@H]1Cc2cc(F)ccc2N1[C@H]1c2cc([N+](=O)[O-])ccc2O[C@](C)(C(OC)OC)[C@@H]1O [Example 16, 1-[(2S, 3R, 4S)-3,4-dihydro-2-dimethoxymethyl-3-hydroxy-2-methyl-6-nitro-2H-1-benzopyran-4-yl]-(2S)-2,3-dihydro-1H-5-fluoroindole-2-carboxylic acid ethyl ester]	–	73	–	–	–	–	–
COC(=O)c1cc2ccccc2n1[C@H]1c2cc([N+](=O)[O-])ccc2O[C@](C)(C(OC)OC)[C@@H]1O [Example 48, 1-[(2S, 3R, 4S)-3,4-dihydro-2-dimethoxymethyl-3-hydroxy-2-methyl-6-nitro-2H-1-benzopyran-4-yl]-1H-indole-2-carboxylic acid methyl ester]	24	–	16.7	9.5	79.5	22.0	–
COC(=O)[C@H]1CCc2ccccc2N1[C@H]1c2cc([N+](=O)[O-])ccc2O[C@](C)(C(OC)OC)[C@@H]1O [Example 54, 1-[(2S, 3R, 4S)-3,4-dihydro-2-dimethoxymethyl-3-hydroxy-2-methyl-6-nitro-2H-1-benzopyran-4-yl]-(2R)-1,2,3,4-tetrahydro-1H-quinoline-2-carboxylic acid methyl ester]	–	100	–	–	–	–	% Protection ([2]; listed as EX. 54): 101%
COC(=O)[C@H]1CCc2ccccc2N1[C@@H]1c2cc([N+](=O)[O-])ccc2O[C@](C)(C(OC)OC)[C@H]1O [Example 56, 1-[(2S, 3S, 4R)-3,4-dihydro-2-dimethoxymethyl-3-hydroxy-2-methyl-6-nitro-2H-1-benzopyran-4-yl]-(2R)-1,2,3,4-tetrahydro-1H-quinoline-2-carboxylic acid methyl ester]	11.4	–	18.8	29.0	61.0	22.2	–
(2S, 2aR, 10aS)-[(3,4-b)-2a,10a-dihydro-2-dimethoxymethyl-2-methyl-12-nitro-2H-1-benzopyrano]-[(1,2-d)-10H-indolino]-4-oxomorpholine [Example 62]	> 30	–	20.5	36.5	67.2	23.1	–
(2S, 2aS, 10aR)-[(3,4-b)-2a,10a-dihydro-2-dimethoxymethyl-2-methyl-12-nitro-2H-1-benzopyrano]-[(1,2-d)-10H-indolino]-4-oxomorpholine [Example 63]	–	100	–	–	–	–	–
